Measurements from ChEMBL document CHEMBL1201862, “PubChem BioAssay data set” (2004).
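48-hour exposure; five concentrations; linearly interpolated endpoints. GI50 is the concentration that inhibits growth by half.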 Calls of active or inactive are those of the source. Rule as the data show it: active = GI50 up to about 1.1 µM and inactive = higher.

Assays:
Experiment in all cases: NCI tumour cell line growth inhibition, 48 h
HOP-62 = test system: HOP-62
CCRF-CEM = test system: CCRF-CEM
DU-145 = test system: DU-145
EKVX = test system: EKVX
U-251 = test system: U-251
M14 = test system: M14
SN12C = test system: SN12C
HCT-15 = test system: HCT-15
SK-MEL-5 = test system: SK-MEL-5
MDA-MB-435 = test system: MDA-MB-435
RPMI-8226 = test system: RPMI-8226
MDA-MB-231 = test system: MDA-MB-231
UACC-257 = test system: UACC-257
ACHN = test system: ACHN
A498 = test system: A498
TK-10 = test system: TK-10
A549 = test system: A549
Hs-578T = test system: Hs-578T
MCF7 = test system: MCF7

How did the GI50 (HOP-62) turn out when `O=C1OC(=O)C2=C1C(c1cccs1)C=C(c1cccnc1)N2c1ccncc1` (centres undefined) was run?
Its GI50 is 15.8 µM (inactive).

And the GI50 (CCRF-CEM)?
Its GI50 is 20.1 µM (inactive).

What about the GI50 (DU-145) of the same compound?
Its GI50 is 16.6 µM (inactive).

What about the GI50 (EKVX) of the same compound?
The GI50 was 14 µM (inactive).

What about the GI50 (U-251) of the same compound?
Its GI50 is 16.9 µM (inactive).

What about the GI50 (M14) of the same compound?
The GI50 was 13.2 µM (inactive).

And the GI50 (SN12C)?
The GI50 was 17.1 µM (inactive).

What about the GI50 (HCT-15) of the same compound?
The GI50 was 14.2 µM.

What about the GI50 (SK-MEL-5) of the same compound?
The GI50 was 17.4 µM (inactive).

And the GI50 (MDA-MB-435)?
The GI50 was 20 µM (inactive).

What about the GI50 (RPMI-8226) of the same compound?
Its GI50 is 13 µM (inactive).

And the GI50 (MDA-MB-231)?
Its GI50 is 19.9 µM (inactive).

What about the GI50 (UACC-257) of the same compound?
The GI50 was 12.3 µM (inactive).

And the GI50 (ACHN)?
Its GI50 is 16.5 µM (inactive).

What about the GI50 (A498) of the same compound?
The GI50 was 18.7 µM (inactive).

What about the GI50 (TK-10) of the same compound?
The GI50 was 17 µM (inactive).

And the GI50 (A549)?
The GI50 was 17.6 µM (inactive).

What about the GI50 (Hs-578T) of the same compound?
Its GI50 is 18.7 µM (inactive).

For `COc1cccc(NC(=O)CC(=O)N2N=C(C)C(/N=N/c3ccc(C(=O)O)cc3)C2=O)c1` (centres undefined), which GI50 (HOP-62) is on record?
The GI50 was > 100 µM (inactive).

And the GI50 (CCRF-CEM)?
The GI50 was > 100 µM (inactive).

And the GI50 (DU-145)?
Its GI50 is > 100 µM (inactive).

And the GI50 (EKVX)?
Its GI50 is 25.4 µM (inactive).

What about the GI50 (M14) of the same compound?
Its GI50 is > 100 µM (inactive).

And the GI50 (MCF7)?
The GI50 was > 100 µM (inactive).

What about the GI50 (SN12C) of the same compound?
Its GI50 is > 100 µM (inactive).

What about the GI50 (HCT-15) of the same compound?
The GI50 was over 100 µM.

And the GI50 (SK-MEL-5)?
Its GI50 is > 100 µM (inactive).

And the GI50 (MDA-MB-435)?
The GI50 was > 100 µM (inactive).

What about the GI50 (RPMI-8226) of the same compound?
The GI50 was > 100 µM (inactive).

And the GI50 (MDA-MB-231)?
The GI50 was > 100 µM (inactive).

What about the GI50 (UACC-257) of the same compound?
Its GI50 is > 100 µM (inactive).

What about the GI50 (ACHN) of the same compound?
Its GI50 is > 100 µM (inactive).

What about the GI50 (TK-10) of the same compound?
The GI50 was > 100 µM (inactive).

And the GI50 (A549)?
The GI50 was > 100 µM (inactive).

And the GI50 (Hs-578T)?
Its GI50 is > 100 µM (inactive).

How did the GI50 (HOP-62) turn out when `O=C1Oc2ccccc2N/C1=C/C(=O)c1ccc(Cl)cc1` was run?
The GI50 was > 100 µM (inactive).

And the GI50 (CCRF-CEM)?
The GI50 was 7.96 µM (inactive).

What about the GI50 (DU-145) of the same compound?
The GI50 was > 100 µM (inactive).

What about the GI50 (EKVX) of the same compound?
Its GI50 is > 100 µM (inactive).

And the GI50 (U-251)?
The GI50 was > 100 µM (inactive).

And the GI50 (M14)?
Its GI50 is > 100 µM (inactive).

What about the GI50 (MCF7) of the same compound?
The GI50 was 41.7 µM (inactive).

What about the GI50 (SN12C) of the same compound?
Its GI50 is > 100 µM (inactive).

And the GI50 (HCT-15)?
Its GI50 is over 100 µM.

What about the GI50 (SK-MEL-5) of the same compound?
The GI50 was 38.6 µM (inactive).

What about the GI50 (MDA-MB-435) of the same compound?
The GI50 was 61.4 µM (inactive).

What about the GI50 (MDA-MB-231) of the same compound?
The GI50 was > 100 µM (inactive).

And the GI50 (UACC-257)?
The GI50 was > 100 µM (inactive).

And the GI50 (ACHN)?
The GI50 was > 100 µM (inactive).

What about the GI50 (A498) of the same compound?
Its GI50 is > 100 µM (inactive).

And the GI50 (TK-10)?
Its GI50 is > 100 µM (inactive).

And the GI50 (A549)?
Its GI50 is 60.3 µM (inactive).

What about the GI50 (Hs-578T) of the same compound?
Its GI50 is > 100 µM (inactive).

How did the GI50 (HOP-62) turn out when `Cc1c2cnccc2c(C)c2c1[nH]c1ccc(O)cc12` was run?
Its GI50 is 1.02 µM (active).

What about the GI50 (CCRF-CEM) of the same compound?
The GI50 was 0.74 µM (active).

And the GI50 (DU-145)?
The GI50 was 1.64 µM (inactive).

What about the GI50 (EKVX) of the same compound?
Its GI50 is 2.88 µM (inactive).

And the GI50 (U-251)?
The GI50 was 2.02 µM (inactive).

What about the GI50 (M14) of the same compound?
The GI50 was 1.57 µM (inactive).

What about the GI50 (MCF7) of the same compound?
Its GI50 is 0.914 µM (active).

And the GI50 (SN12C)?
Its GI50 is 1.12 µM (inactive).

What about the GI50 (HCT-15) of the same compound?
The GI50 was 0.971 µM.

What about the GI50 (SK-MEL-5) of the same compound?
The GI50 was > 10 µM (inactive).

What about the GI50 (MDA-MB-435) of the same compound?
Its GI50 is 1.78 µM (inactive).

What about the GI50 (RPMI-8226) of the same compound?
The GI50 was 1.59 µM (inactive).

And the GI50 (MDA-MB-231)?
Its GI50 is 1.57 µM (inactive).

And the GI50 (UACC-257)?
The GI50 was 2.73 µM (inactive).

What about the GI50 (ACHN) of the same compound?
Its GI50 is 1.32 µM (inactive).

What about the GI50 (TK-10) of the same compound?
The GI50 was 3.91 µM (inactive).

And the GI50 (A549)?
The GI50 was 1.52 µM (inactive).

And the GI50 (Hs-578T)?
The GI50 was > 10 µM (inactive).

`COC1(OC)C2C=CC1C([C@](C)(N)CO)C2` (some centres undefined) was tested. Which GI50 (HOP-62) did it give?
The GI50 was > 100 µM (inactive).

What about the GI50 (CCRF-CEM) of the same compound?
The GI50 was > 100 µM (inactive).

What about the GI50 (DU-145) of the same compound?
Its GI50 is > 100 µM (inactive).

And the GI50 (EKVX)?
The GI50 was > 100 µM (inactive).

And the GI50 (U-251)?
The GI50 was > 100 µM (inactive).

And the GI50 (M14)?
The GI50 was > 100 µM (inactive).

What about the GI50 (MCF7) of the same compound?
The GI50 was > 100 µM (inactive).

And the GI50 (SN12C)?
Its GI50 is > 100 µM (inactive).

And the GI50 (SK-MEL-5)?
Its GI50 is > 100 µM (inactive).

What about the GI50 (MDA-MB-435) of the same compound?
Its GI50 is > 100 µM (inactive).

And the GI50 (MDA-MB-231)?
Its GI50 is > 100 µM (inactive).

What about the GI50 (UACC-257) of the same compound?
Its GI50 is > 100 µM (inactive).

What about the GI50 (ACHN) of the same compound?
Its GI50 is > 100 µM (inactive).

And the GI50 (A498)?
The GI50 was > 100 µM (inactive).

What about the GI50 (TK-10) of the same compound?
The GI50 was > 100 µM (inactive).

What about the GI50 (A549) of the same compound?
The GI50 was > 100 µM (inactive).

What about the GI50 (Hs-578T) of the same compound?
Its GI50 is > 100 µM (inactive).

With `NC(=O)c1c(NC=O)ncn1C1OCC(O)C(O)C1O` (centres undefined) as the compound, how does the GI50 (HOP-62) read?
The GI50 was > 100 µM (inactive).

What about the GI50 (CCRF-CEM) of the same compound?
Its GI50 is > 100 µM (inactive).

And the GI50 (DU-145)?
Its GI50 is > 100 µM (inactive).

And the GI50 (EKVX)?
The GI50 was > 100 µM (inactive).

What about the GI50 (U-251) of the same compound?
The GI50 was > 100 µM (inactive).

And the GI50 (SN12C)?
Its GI50 is > 100 µM (inactive).

And the GI50 (HCT-15)?
Its GI50 is over 100 µM.

What about the GI50 (SK-MEL-5) of the same compound?
Its GI50 is > 100 µM (inactive).

What about the GI50 (MDA-MB-435) of the same compound?
Its GI50 is > 100 µM (inactive).

And the GI50 (RPMI-8226)?
Its GI50 is > 100 µM (inactive).

What about the GI50 (MDA-MB-231) of the same compound?
The GI50 was > 100 µM (inactive).

And the GI50 (UACC-257)?
Its GI50 is > 100 µM (inactive).

What about the GI50 (ACHN) of the same compound?
The GI50 was > 100 µM (inactive).

What about the GI50 (TK-10) of the same compound?
Its GI50 is > 100 µM (inactive).

And the GI50 (A549)?
Its GI50 is > 100 µM (inactive).

What about the GI50 (Hs-578T) of the same compound?
Its GI50 is > 100 µM (inactive).
